pIC50, pKd: −log10 of the molar value. Where only a bound is given, the exact number is not on record here.

For one experiment, the target named is T1, Bromodomain-containing protein 4 (Homo sapiens, UniProt O60885). The experiment in a line: Inhibition of binding of N-terminal His-tagged human full length recombinant BRD4 (2 to 1362 residues) expressed in baculovirus-infected Sf9 cells with acetylated histone H4 peptide (1 to 21) preincubated for 30 mins followed by H4 ligand addition and measured after 30 mins AlphaScreen assay. A general note: In Alpha technology, singlet oxygen from a donor bead excites a nearby acceptor bead.
Turning to `Cc1cc(-c2ccc3nc(-c4cnn(CC(C)(C)O)c4)nc(N4CCOC[C@@H]4c4ccccc4)c3c2)cn(C)c1=O`, the pIC50 (as a rule, the IC50 on a negative log10 scale, so that one unit is a factor of ten) was > 7.00.

On to `Cc1cc(-c2ccc3nc(-c4cnn(CC(C)(C)O)c4)nc(N4CCOC[C@@H]4C4CC4)c3c2)cn(C)c1=O`, for which the negative-log IC50 (pIC50) was 7.00.

As to `Cc1cc(-c2ccc3nc(-c4cnn(CC(C)(C)O)c4)nc(N4CCOC[C@@H]4c4ccc(F)cc4)c3c2)cn(C)c1=O`, the pIC50 is > 7.00.

Regarding `Cn1cc(-c2ccc3nc(-c4cnn(CC(C)(C)O)c4)nc(N4CCOC[C@@H]4c4ccc(F)cc4)c3c2)c2cc[nH]c2c1=O`, the pIC50 is > 7.00.

In the case of `Cn1cc(-c2ccc3nc(-c4cnn(CC(C)(C)O)c4)nc(N4CCOC[C@@H]4c4ccccc4)c3c2)c2cc[nH]c2c1=O`, the negative logarithm of the IC50 (pIC50) was > 7.00.

Take `Cn1cc(-c2ccc3nc(-c4cnn(CC(C)(C)O)c4)nc(N4CCOC[C@@H]4C4CC4)c3c2)c2cc[nH]c2c1=O`: the negative logarithm of the IC50 (pIC50) is > 7.00.

A further experiment addresses T1, Bromodomain-containing protein 4. Put plainly: Binding affinity to DNA-tagged human BRD4 (BD1,2) isoform long expressed in Escherichia coli BL21 incubated for 1 hr by competitive ligand binding BROMOscan assay.
As for `Cc1cc(-c2ccc3nc(-c4cnn(CC(C)(C)O)c4)nc(N4CCOC[C@@H]4c4ccccc4)c3c2)cn(C)c1=O`, the negative logarithm of the Kd (pKd) (in general, the negative decadic logarithm of the Kd, by convention in mol/L) is > 7.00.

As to `Cc1cc(-c2ccc3nc(-c4cnn(CC(C)(C)O)c4)nc(N4CCOC[C@@H]4C4CC4)c3c2)cn(C)c1=O`, the negative logarithm of the Kd (pKd) was > 7.00.

Consider `Cc1cc(-c2ccc3nc(-c4cnn(CC(C)(C)O)c4)nc(N4CCOC[C@@H]4c4ccc(F)cc4)c3c2)cn(C)c1=O`, for which the pKd was > 7.00.

Regarding `Cn1cc(-c2ccc3nc(-c4cnn(CC(C)(C)O)c4)nc(N4CCOC[C@@H]4c4ccc(F)cc4)c3c2)c2cc[nH]c2c1=O`, the negative-log Kd (pKd) was > 7.00.

Take `Cn1cc(-c2ccc3nc(-c4cnn(CC(C)(C)O)c4)nc(N4CCOC[C@@H]4c4ccccc4)c3c2)c2cc[nH]c2c1=O`: the pKd was > 7.00.

As to `Cn1cc(-c2ccc3nc(-c4cnn(CC(C)(C)O)c4)nc(N4CCOC[C@@H]4C4CC4)c3c2)c2cc[nH]c2c1=O`, the negative logarithm of the Kd (pKd) was > 7.00.

Values taken from ChEMBL document CHEMBL4834490, “Novel Bromodomain Inhibitors for Treating Cancer, Fibrosis, and Inflammatory Disorders” (ACS Med Chem Lett, 2021).
